The record followed here is the supplement of paper PMC10307832.

Common to all, as to test: relative viability (nuclei count vs DMSO), 5 days (fraction); higher = more cells survive
Compound in the assay “IU1-47 + Crizotinib”: CC1=CC(=C(N1C2=CC=C(C=C2)Cl)C)C(=O)CN3CCCCC3 [IU1-47] + C[C@@H](Oc1cc(-c2cnn(C3CCNCC3)c2)cnc1N)c1c(Cl)ccc(F)c1Cl [Crizotinib] (partner 1 µM)
Summed up: (§1)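 A single step with final 0.05% Triton X-100, 1% formaldehyde and 1 ug/ml Hoechst fixed the cells and stained nuclei 5 days after treatment. Lung cancer cell lines in 1536-well plates had been treated by pin tool the day after seeding with one drug alone or a fixed anchor-drug dose plus five library-drug doses (not always all listed) in √10 steps, and nuclei were counted on 4× images. Relative viability is the ratio of nuclei in treated wells to nuclei in vehicle wells, taken as the median of duplicate plates.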

Compound in the assay “FG-4592 + Luminespib”: Cc1nc(C(=O)NCC(=O)O)c(O)c2ccc(Oc3ccccc3)cc12 [FG-4592] + CCNC(=O)c1noc(-c2cc(C(C)C)c(O)cc2O)c1-c1ccc(CN2CCOCC2)cc1 [Luminespib] (partner 0.01 µM)
Summed up:
as §1

Compound in the assay “FG-4592 + Dasatinib”: Cc1nc(C(=O)NCC(=O)O)c(O)c2ccc(Oc3ccccc3)cc12 [FG-4592] + Cc1nc(Nc2ncc(C(=O)Nc3c(C)cccc3Cl)s2)cc(N2CCN(CCO)CC2)n1 [Dasatinib] (partner 0.075 µM)
Summed up: as §1

Compound in the assay “FG-4592 + Navitoclax”: Cc1nc(C(=O)NCC(=O)O)c(O)c2ccc(Oc3ccccc3)cc12 [FG-4592] + CC1(C)CCC(c2ccc(Cl)cc2)=C(CN2CCN(c3ccc(C(=O)NS(=O)(=O)c4ccc(N[C@H](CCN5CCOCC5)CSc5ccccc5)c(S(=O)(=O)C(F)(F)F)c4)cc3)CC2)C1 [Navitoclax] (partner 0.5 µM)
The essentials: as §1

For NCI-H3122, the relative viability is 0.277 with IU1-47 + Crizotinib (first compound 0.08 µM); 0.27 with IU1-47 + Crizotinib (first compound 0.253 µM); 0.295 in the assay with IU1-47 + Crizotinib (first compound 0.8 µM); 0.269 with IU1-47 + Crizotinib (first compound 2.53 µM); 0.241 with IU1-47 + Crizotinib (first compound 8 µM); 0.079 in the assay with FG-4592 + Luminespib (first compound 0.08 µM). For the same cell line, the relative viability was 0.108 in the assay with FG-4592 + Luminespib (first compound 0.253 µM); 0.0631 with FG-4592 + Luminespib (first compound 0.8 µM); 0.092 with FG-4592 + Luminespib (first compound 2.53 µM); 0.0857 in the assay with FG-4592 + Luminespib (first compound 8 µM); 0.737 with FG-4592 + Dasatinib (first compound 0.08 µM); 0.824 with FG-4592 + Dasatinib (first compound 0.253 µM). In addition, the relative viability with FG-4592 + Dasatinib (first compound 0.8 µM) worked out at 0.877; with FG-4592 + Dasatinib (first compound 2.53 µM), 0.983; with FG-4592 + Dasatinib (first compound 8 µM), 0.563; with FG-4592 + Navitoclax (first compound 0.08 µM), 1.03; with FG-4592 + Navitoclax (first compound 0.253 µM) it was 0.978; with FG-4592 + Navitoclax (first compound 0.8 µM), 0.997. Further, the relative viability with FG-4592 + Navitoclax (first compound 2.53 µM) came to 1.03; with FG-4592 + Navitoclax (first compound 8 µM), 1.05.
On to PC-3 [JPC-3], for which the relative viability amounted to 1.08 with IU1-47 + Crizotinib (first compound 0.08 µM); 0.975 in the assay with IU1-47 + Crizotinib (first compound 0.253 µM); 1.08 in the assay with IU1-47 + Crizotinib (first compound 0.8 µM); 0.962 with IU1-47 + Crizotinib (first compound 8 µM); 0.735 with FG-4592 + Luminespib (first compound 0.08 µM); 0.639 with FG-4592 + Luminespib (first compound 0.253 µM). Moreover, the relative viability with FG-4592 + Luminespib (first compound 0.8 µM) was determined as 0.817; in the assay with FG-4592 + Luminespib (first compound 2.53 µM), 0.798; in the assay with FG-4592 + Luminespib (first compound 8 µM) it was 0.575; with FG-4592 + Dasatinib (first compound 0.08 µM) it was 1.04; in the assay with FG-4592 + Dasatinib (first compound 0.253 µM), 0.92; with FG-4592 + Dasatinib (first compound 0.8 µM), 0.896. The relative viability with FG-4592 + Dasatinib (first compound 2.53 µM) was determined as 1.05; with FG-4592 + Dasatinib (first compound 8 µM), 0.954; with FG-4592 + Navitoclax (first compound 0.08 µM) it was 0.778; in the assay with FG-4592 + Navitoclax (first compound 0.253 µM), 0.823; with FG-4592 + Navitoclax (first compound 0.8 µM), 0.829; with FG-4592 + Navitoclax (first compound 2.53 µM), 0.875. Moreover, the relative viability with FG-4592 + Navitoclax (first compound 8 µM) stood at 0.859.
Regarding PC-14, the relative viability was 0.921 with IU1-47 + Crizotinib (first compound 0.08 µM); 0.888 in the assay with IU1-47 + Crizotinib (first compound 0.253 µM); 0.845 in the assay with IU1-47 + Crizotinib (first compound 0.8 µM); 0.999 in the assay with IU1-47 + Crizotinib (first compound 2.53 µM); 0.926 in the assay with IU1-47 + Crizotinib (first compound 8 µM); 0.136 with FG-4592 + Luminespib (first compound 0.08 µM). In addition, the relative viability in the assay with FG-4592 + Luminespib (first compound 0.253 µM) is 0.177; with FG-4592 + Luminespib (first compound 0.8 µM), 0.143; with FG-4592 + Luminespib (first compound 2.53 µM), 0.197; with FG-4592 + Luminespib (first compound 8 µM) it was 0.16; with FG-4592 + Dasatinib (first compound 0.08 µM), 0.274; with FG-4592 + Dasatinib (first compound 0.253 µM), 0.195. Moreover, the relative viability is 0.275 with FG-4592 + Dasatinib (first compound 0.8 µM); 0.311 in the assay with FG-4592 + Dasatinib (first compound 2.53 µM); 0.343 in the assay with FG-4592 + Dasatinib (first compound 8 µM); 1.01 with FG-4592 + Navitoclax (first compound 0.08 µM); 1.06 in the assay with FG-4592 + Navitoclax (first compound 0.253 µM); 1.08 with FG-4592 + Navitoclax (first compound 0.8 µM). Moreover, the figures for the relative viability with FG-4592 + Navitoclax (first compound 2.53 µM) and in the assay with FG-4592 + Navitoclax (first compound 8 µM) were 1.01 and 1.03, respectively.
As to RERF-LC-KJ, the relative viability with IU1-47 + Crizotinib (first compound 0.08 µM) was 0.805; with IU1-47 + Crizotinib (first compound 0.253 µM) it was 0.86; with IU1-47 + Crizotinib (first compound 0.8 µM), 0.787; with IU1-47 + Crizotinib (first compound 2.53 µM), 0.848; with IU1-47 + Crizotinib (first compound 8 µM), 0.884; with FG-4592 + Luminespib (first compound 0.08 µM) it was 1.23. For the same cell line, the relative viability with FG-4592 + Luminespib (first compound 0.253 µM) is 1.24; with FG-4592 + Luminespib (first compound 0.8 µM), 1.45; with FG-4592 + Luminespib (first compound 2.53 µM) it was 1.17; with FG-4592 + Luminespib (first compound 8 µM), 0.991; in the assay with FG-4592 + Dasatinib (first compound 0.08 µM), 0.91; with FG-4592 + Dasatinib (first compound 0.253 µM), 0.701. For the same cell line, the relative viability in the assay with FG-4592 + Dasatinib (first compound 0.8 µM) stood at 0.739; with FG-4592 + Dasatinib (first compound 2.53 µM), 0.836; in the assay with FG-4592 + Dasatinib (first compound 8 µM), 0.678; with FG-4592 + Navitoclax (first compound 0.08 µM) it was 0.87; in the assay with FG-4592 + Navitoclax (first compound 0.253 µM), 0.691; in the assay with FG-4592 + Navitoclax (first compound 0.8 µM) it was 1.06. The relative viability with FG-4592 + Navitoclax (first compound 2.53 µM) came out at 1.07; with FG-4592 + Navitoclax (first compound 8 µM), 0.622.
In the case of SK-LU-1, the relative viability worked out at 0.975 with IU1-47 + Crizotinib (first compound 0.08 µM); 0.912 in the assay with IU1-47 + Crizotinib (first compound 0.253 µM); 0.963 with IU1-47 + Crizotinib (first compound 0.8 µM); 0.996 with IU1-47 + Crizotinib (first compound 2.53 µM); 0.814 with IU1-47 + Crizotinib (first compound 8 µM); 0.184 with FG-4592 + Luminespib (first compound 0.08 µM). In addition, the relative viability with FG-4592 + Luminespib (first compound 0.253 µM) is 0.174; with FG-4592 + Luminespib (first compound 0.8 µM), 0.187; with FG-4592 + Luminespib (first compound 2.53 µM) it was 0.223; with FG-4592 + Luminespib (first compound 8 µM), 0.202; with FG-4592 + Dasatinib (first compound 0.08 µM) it was 0.167; with FG-4592 + Dasatinib (first compound 0.253 µM) it was 0.17. For the same cell line, the relative viability with FG-4592 + Dasatinib (first compound 0.8 µM) is 0.15; with FG-4592 + Dasatinib (first compound 2.53 µM), 0.159; with FG-4592 + Dasatinib (first compound 8 µM), 0.151; with FG-4592 + Navitoclax (first compound 0.08 µM), 0.72; in the assay with FG-4592 + Navitoclax (first compound 0.253 µM), 0.554; with FG-4592 + Navitoclax (first compound 0.8 µM), 0.959. Also, the relative viability with FG-4592 + Navitoclax (first compound 8 µM) was 0.777.
Turning to SK-MES-1, the relative viability was found to be 1.08 with IU1-47 + Crizotinib (first compound 0.08 µM); 1.04 with IU1-47 + Crizotinib (first compound 0.253 µM); 0.908 with IU1-47 + Crizotinib (first compound 0.8 µM); 0.984 with IU1-47 + Crizotinib (first compound 2.53 µM); 0.994 in the assay with IU1-47 + Crizotinib (first compound 8 µM); 0.837 in the assay with FG-4592 + Luminespib (first compound 0.08 µM). The relative viability with FG-4592 + Luminespib (first compound 0.253 µM) is 0.721; with FG-4592 + Luminespib (first compound 0.8 µM), 0.683; with FG-4592 + Luminespib (first compound 2.53 µM), 0.794; with FG-4592 + Luminespib (first compound 8 µM), 0.785; with FG-4592 + Dasatinib (first compound 0.08 µM), 0.534; with FG-4592 + Dasatinib (first compound 0.253 µM) it was 0.434. The relative viability with FG-4592 + Dasatinib (first compound 0.8 µM) came to 0.351; with FG-4592 + Dasatinib (first compound 2.53 µM), 0.365; in the assay with FG-4592 + Dasatinib (first compound 8 µM) it was 0.34; with FG-4592 + Navitoclax (first compound 0.08 µM), 1.15; with FG-4592 + Navitoclax (first compound 0.253 µM), 1.18; with FG-4592 + Navitoclax (first compound 0.8 µM) it was 1.32. Also, the relative viability in the assay with FG-4592 + Navitoclax (first compound 2.53 µM) was 1.25; with FG-4592 + Navitoclax (first compound 8 µM), 1.39.
As for SW 1573, the relative viability with IU1-47 + Crizotinib (first compound 0.08 µM) was 0.728; in the assay with IU1-47 + Crizotinib (first compound 0.253 µM), 0.796; in the assay with IU1-47 + Crizotinib (first compound 0.8 µM) it was 0.761; in the assay with IU1-47 + Crizotinib (first compound 2.53 µM), 0.859; in the assay with IU1-47 + Crizotinib (first compound 8 µM) it was 0.903; with FG-4592 + Luminespib (first compound 0.08 µM), 0.224. In addition, the relative viability was 0.547 with FG-4592 + Luminespib (first compound 0.253 µM); 0.186 with FG-4592 + Luminespib (first compound 0.8 µM); 0.415 in the assay with FG-4592 + Luminespib (first compound 2.53 µM); 0.223 with FG-4592 + Luminespib (first compound 8 µM); 0.528 with FG-4592 + Dasatinib (first compound 0.08 µM); 0.344 with FG-4592 + Dasatinib (first compound 0.253 µM). Further, the relative viability was found to be 0.522 in the assay with FG-4592 + Dasatinib (first compound 0.8 µM); 0.354 with FG-4592 + Dasatinib (first compound 2.53 µM); 0.406 with FG-4592 + Dasatinib (first compound 8 µM); 0.771 with FG-4592 + Navitoclax (first compound 0.08 µM); 0.933 with FG-4592 + Navitoclax (first compound 0.253 µM); 1.02 with FG-4592 + Navitoclax (first compound 0.8 µM). Besides, the relative viability with FG-4592 + Navitoclax (first compound 2.53 µM) came to 0.937; with FG-4592 + Navitoclax (first compound 8 µM) it was 0.803.
